In experiment [1] the target is KRas G12D/Q61H double mutant (Homo sapiens (Human), UniProt P01116, G12D/Q61H). Description: Ras GTP binding domain inhibition assay (labeled GTP). As to conditions: at 20 μM; read-out: KRas G12D Q61H % Inh. In short, it runs like this:
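Fluorescence read-out of Cy3-/Cy5-GTP remaining bound to nickel-immobilized His-KRas after washes. Protein was coated overnight at 4° C, then exposed to compound for 3 h at room temperature before a 45 min labeled-GTP incubation.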

Experiment [2] deals with Rho-A (Homo sapiens (Human), UniProt P61586). Description: Rho inhibition assay (labeled GTP). Type of experiment: binding. The following applies: read-out: Rho-A % Inh.
Sequence of Rho-A (P61586 whole entry): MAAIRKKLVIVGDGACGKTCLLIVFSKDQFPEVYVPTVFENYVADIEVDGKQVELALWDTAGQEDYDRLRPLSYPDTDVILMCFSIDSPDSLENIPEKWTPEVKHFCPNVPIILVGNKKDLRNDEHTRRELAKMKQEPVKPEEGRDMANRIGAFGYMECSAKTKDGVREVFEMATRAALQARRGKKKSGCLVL
The target of experiment [3] is Rac-1 (Homo sapiens (Human), UniProt P63000). The experiment in a line: Rac inhibition assay (labeled GTP). Type of experiment: binding. The following applies: read-out: Rac-1 % Inh.

Sequence of KRas G12D/Q61H double mutant (P01116-2 other isoform, or with tags, fused parts or gaps G12D/Q61H): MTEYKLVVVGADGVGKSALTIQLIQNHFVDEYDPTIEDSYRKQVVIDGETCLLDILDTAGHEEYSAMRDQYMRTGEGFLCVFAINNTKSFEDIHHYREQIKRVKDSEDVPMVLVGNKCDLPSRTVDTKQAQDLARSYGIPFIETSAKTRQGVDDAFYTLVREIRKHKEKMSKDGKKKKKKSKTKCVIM

On to `N#Cc1ccc(CCNC(=O)c2csc3nc(-c4ccccn4)nc(N4CCOCC4)c23)cc1` [drawing 3639], for which the figures for the inhibition at 20 µM in experiment [1], in experiment [2] and in experiment [3] were 1 to 25%, 25 to 50% and 25 to 50%, respectively.
With `Oc1nc(-c2ccccn2)nc2c(CC3CNC3)csc12` [drawing 3837], the inhibition at 20 µM was 25 to 50% in experiment [1], 76 to 100% in experiment [2] and 76 to 100% in experiment [3].
In the case of `COC(=O)c1csc2nc(-c3ccccn3)nc(N)c12` [drawing 3767], the inhibition at 20 µM in experiment [1] is 25 to 50%; in experiment [2] it was 51 to 75%; in experiment [3], 51 to 75%.
For `Cc1sc2c(O)nc(-c3ccccn3)nc2c1Br` [drawing 3840], the figures for the inhibition at 20 µM in experiment [1], in experiment [2] and in experiment [3] were 25 to 50%, 51 to 75% and 25 to 50%, respectively.
`COC(=O)c1sc2c(O)nc(-c3ccccn3)nc2c1C` [drawing 3795]: the inhibition at 20 µM in experiment [1] lay within 25 to 50%; in experiment [2], 51 to 75%; in experiment [3], 51 to 75%.
As for `O=C(c1csc2c(O)nc(-c3ccccn3)nc12)N1CCN(Cc2ccc(O)cc2)CC1` [drawing 3653], the inhibition at 20 µM in experiment [1] was 1 to 25%; in experiment [2], 25 to 50%; in experiment [3], 51 to 75%.
For `COc1ncc(CCNC(=O)c2csc3nc(-c4ccccn4)nc(N4CCOCC4)c23)cn1` [drawing 3637] the same measures were 1 to 25%, 51 to 75% and 51 to 75%.
For `O=C(c1csc2c(O)nc(-c3ccccn3)nc12)N1CCOC(Cc2ccccc2)C1` (stereo not drawn) [drawing 3660], in that order: 25 to 50%, 76 to 100% and 76 to 100%.
For `COc1cccc(CC2CN(C(=O)c3csc4c(O)nc(-c5ccccn5)nc34)CCN2)c1` (stereo not drawn) [drawing 3702], in that order: 51 to 75%, 51 to 75% and 76 to 100%.
For the molecule `O=C(c1csc2c(O)nc(-c3ccccn3)nc12)N1CCOC(c2nccs2)C1` (stereo not drawn) [drawing 3631], the inhibition at 20 µM in experiment [1] lay within 25 to 50%; in experiment [2] it was 76 to 100%; in experiment [3] it was 76 to 100%.
As for `CC(C)c1nn(C)cc1-c1csc2c(O)nc(-c3ccccn3)nc12` [drawing 3820], the inhibition at 20 µM in experiment [1], in experiment [2] and in experiment [3] was 51 to 75% throughout.
For `Cn1cnc(-c2nc(O)c3sc(-c4ccncc4)c(-c4ccccc4)c3n2)c1` [drawing 3867], the results for the inhibition at 20 µM in experiment [1], in experiment [2] and in experiment [3] were 0%, 25 to 50% and 1 to 25%, respectively.
Turning to `COc1ccnc(-c2nc(O)c3c(CN)csc3n2)c1`, the figures for the inhibition at 20 µM in experiment [1], in experiment [2] and in experiment [3] were 0%, 25 to 50% and 51 to 75%, respectively.
For `Oc1nc(-c2ccccn2)nc2cc(-c3ccccc3Cl)sc12` [drawing 3874], in that order: 1 to 25%, 51 to 75% and 51 to 75%.
For the molecule `COc1cnc(C2CCCN2)nc1O` (stereo not drawn) [drawing 3788], the values for the inhibition at 20 µM in experiment [1], in experiment [2] and in experiment [3] were 0%, 1 to 25% and 0%, respectively.
For the molecule `COc1cnc(CNC(=O)c2csc3nc(-c4ccccn4)nc(N)c23)[nH]c1=O` [drawing 3835], the values for the inhibition at 20 µM in experiment [1], in experiment [2] and in experiment [3] were 25 to 50%, 51 to 75% and 25 to 50%, respectively.
With `Oc1nc(-c2ccccn2)nc2c(-c3ccccc3)csc12` [drawing 3625], the inhibition at 20 µM in experiment [1] lay in the range of 25 to 50%; in experiment [2], 51 to 75%; in experiment [3], 51 to 75%.
Take `COc1ccnc(-c2nc(O)c3c(Br)csc3n2)c1` [drawing 3632]: the inhibition at 20 µM in experiment [1], in experiment [2] and in experiment [3] was 25 to 50% each time.
For the molecule `O=C(NCCc1ccnc(O)c1)c1csc2nc(-c3ccccn3)nc(N3CCOCC3)c12` [drawing 3672], the results for the inhibition at 20 µM in experiment [1], in experiment [2] and in experiment [3] were 1 to 25%, 25 to 50% and 25 to 50%, respectively.
`O=C(NCCc1cccnc1)c1cc2nc(-c3ccccn3)nc(O)c2s1` [drawing 3715]: the inhibition at 20 µM in experiment [1] fell in the range of 25 to 50%; in experiment [2], 76 to 100%; in experiment [3] it was 76 to 100%.
Consider `COc1cnc(CNC(=O)c2cc3nc(-c4ccccn4)nc(O)c3s2)[nH]c1=O` [drawing 3839], for which the values for the inhibition at 20 µM in experiment [1], in experiment [2] and in experiment [3] were 25 to 50%, 51 to 75% and 51 to 75%, respectively.
As to `Nc1nc(O)c2sc(-c3cccc(C(=O)NCc4ncc[nH]4)c3)cc2n1` [drawing 3863], the inhibition at 20 µM in experiment [1], in experiment [2] and in experiment [3] was 0% each time.
On to `O=C(NCCc1cnc(O)nc1)c1csc2nc(-c3ccccn3)nc(N3CCS(=O)(=O)CC3)c12` [drawing 3726], for which the figures for the inhibition at 20 µM in experiment [1], in experiment [2] and in experiment [3] were 25 to 50%, 51 to 75% and 51 to 75%, respectively.
With `COc1ccc(CCNC(=O)c2csc3nc(-c4ccccn4)nc(N4CCOCC4)c23)cn1` [drawing 3634], the inhibition at 20 µM in experiment [1] lay within 25 to 50%; in experiment [2] it was 51 to 75%; in experiment [3] it was 51 to 75%.
For `CC(C(=O)Nc1nc(-c2ccccn2)nc2sccc12)c1ccc(C#N)cc1` (stereo not drawn) [drawing 3687], the inhibition at 20 µM was 1 to 25% in experiment [1], 76 to 100% in experiment [2] and 76 to 100% in experiment [3].
On to `OCC1(c2ccc(-c3nc(-c4ccccn4)nc(-c4ccc(C5(CO)CC5)cc4)c3Oc3ccccc3)cc2)CC1` [drawing 3850], for which the inhibition at 20 µM was in the range of 1 to 25% in experiment [1], 25 to 50% in experiment [2] and 25 to 50% in experiment [3].
Consider `Nc1nc(-c2ccccn2)nc2scc(C(=O)O)c12` [drawing 3778], for which the inhibition at 20 µM in experiment [1] was in the range of 25 to 50%; in experiment [2] it was 51 to 75%; in experiment [3], 51 to 75%.
On to `COC(=O)c1c(C)sc2c(N)nc(-c3ccccn3)nc12` [drawing 3818], for which the values for the inhibition at 20 µM in experiment [1], in experiment [2] and in experiment [3] were 51 to 75%, 76 to 100% and 76 to 100%, respectively.
For `NC(=O)C1CCCN1C(=O)c1cccc(-c2cc3nc(N)nc(O)c3s2)c1` (stereo not drawn) [drawing 3862], the inhibition at 20 µM in experiment [1], in experiment [2] and in experiment [3] was 0% in each case.
For the molecule `N#Cc1cccc(N2CCN(C(=O)c3csc4c(O)nc(-c5ccccn5)nc34)CC2)c1` [drawing 3644], the inhibition at 20 µM in experiment [1] fell in the range of 1 to 25%; in experiment [2], 51 to 75%; in experiment [3] it was 51 to 75%.
Consider `COc1ccc(C2CN(C(=O)c3csc4c(O)nc(-c5ccccn5)nc34)CCO2)cc1` (stereo not drawn) [drawing 3657], for which the inhibition at 20 µM in experiment [1], in experiment [2] and in experiment [3] was 25 to 50% throughout.
With `Oc1nc(-c2ccccn2)nc2cc(-c3cccc(Br)c3)sc12` [drawing 3882], the inhibition at 20 µM in experiment [1] was in the range of 25 to 50%; in experiment [2] it was 25 to 50%; in experiment [3], 1 to 25%.
As to `CN(CCc1cccc(C#N)c1)C(=O)c1csc2nc(-c3ccccn3)nc(N3CCOCC3)c12` [drawing 3677], the figures for the inhibition at 20 µM in experiment [1], in experiment [2] and in experiment [3] were 1 to 25%, 51 to 75% and 76 to 100%, respectively.
For `COCC(C)Nc1nc(-c2ccccn2)nc(C(=O)NCCCc2c[nH]cn2)c1Oc1ccccc1` (stereo not drawn) [drawing 3868], in that order: 1 to 25%, 25 to 50% and 25 to 50%.
For `CC(C)(C)c1ccc(-c2csc3c(O)nc(-c4ccccn4)nc23)cc1` [drawing 3719], in that order: 51 to 75%, 51 to 75% and 51 to 75%.
For `Oc1nc(-c2ccccn2)nc2c(-c3ccc(OC4CCCC4)cc3)csc12` [drawing 3735] the same measures were 25 to 50%, 25 to 50% and 25 to 50%.
Consider `Cc1ccc(OC2CCCC2)c(-c2csc3c(O)nc(-c4ccccn4)nc23)c1` [drawing 3716], for which the inhibition at 20 µM in experiment [1], in experiment [2] and in experiment [3] was 51 to 75% throughout.
Turning to `COc1nccc(CCNC(=O)c2csc3nc(-c4ccccn4)nc(N4CCOCC4)c23)n1` [drawing 3769], the results for the inhibition at 20 µM in experiment [1], in experiment [2] and in experiment [3] were 1 to 25%, 25 to 50% and 25 to 50%, respectively.
As for `O=C(NCCc1cccnc1)c1csc2nc(-c3ccccn3)nc(N3CCOCC3)c12` [drawing 3633], the inhibition at 20 µM in experiment [1] lay in the range of 1 to 25%; in experiment [2] it was 51 to 75%; in experiment [3], 51 to 75%.
With `COc1ccnc(-c2nc(O)c3c(C(F)(F)F)csc3n2)c1` [drawing 3705], the inhibition at 20 µM in experiment [1] lay within 25 to 50%; in experiment [2], 51 to 75%; in experiment [3], 51 to 75%.

For the origin of these results see patent US10940139B2, “Compounds that interact with the Ras superfamily for the treatment of cancers, inflammatory diseases, rasopathies, and fibrotic disease” (Shy Therapeutics LLC, priority 2017, dated 2021).
